# In PMC7156458, “Synthetic biology based construction of biological activity-related library of fungal decalin-containing diterpenoid pyrones” (Nature Communications, 2020):
# Legend:
# Assay in all cases: cells
# Design in all cases: species or system JFCR39 human cancer cell lines; JFCR39 panel growth inhibition, sulforhodamine B total protein after 48 h
# HCT-15 = details: for GI50: Homo sapiens, HCT-15, 48 h
# Procedure, shortened: (§1)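 Cells are grown in kanamycin-supplemented RPMI-1640 with 5% FBS (37°C, humidified 5% CO2), then treated with compound for 48 hours. Antiproliferative effect is scored by sulforhodamine B protein staining and expressed as GI50, duplicate determinations.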
# OVCAR-3 = details: Homo sapiens, OVCAR-3, 48 h
# Procedure, shortened: as §1
# PC-3 = details: Homo sapiens, PC-3, 48 h
# Procedure, shortened: as §1
# MKN45 = details: Homo sapiens, MKN-45, 48 h
# Procedure, shortened: as §1
# SF-268 = details: Homo sapiens, SF-268, 48 h
# Procedure, shortened: as §1
# MKN74 = details: for GI50: Homo sapiens, MKN-74, 48 h
# Procedure, shortened: as §1
# OVCAR-8 = details: Homo sapiens, OVCAR-8, 48 h
# Procedure, shortened: as §1
# MKN-A = details: 48 h
# Procedure, shortened: as §1
# DMS114 = details: for GI50: Homo sapiens, DMS-114, 48 h
# Procedure, shortened: as §1
# HCT-116 = details: Homo sapiens, HCT-116, 48 h
# Procedure, shortened: as §1
# OVCAR-4 = details: Homo sapiens, OVCAR-4, 48 h
# Procedure, shortened: as §1
# DU-145 = details: Homo sapiens, DU-145, 48 h
# Procedure, shortened: as §1
# MKN1 = details: Homo sapiens, MKN-1, 48 h
# Procedure, shortened: as §1
# SF-295 = details: Homo sapiens, SF-295, 48 h
# Procedure, shortened: as §1
# U251 = details: Homo sapiens, U-251, 48 h
# Procedure, shortened: as §1
# SK-OV-3 = details: Homo sapiens, SK-OV-3, 48 h
# Procedure, shortened: as §1
# HT-29 = details: Homo sapiens, HT-29, 48 h
# Procedure, shortened: as §1
# NCI-H23 = details: Homo sapiens, NCI-H23, 48 h
# Procedure, shortened: as §1
# SF-539 = details: Homo sapiens, SF-539, 48 h
# Procedure, shortened: as §1
# OVCAR-5 = details: Homo sapiens, OVCAR-5, 48 h
# Procedure, shortened: as §1
# HBC-4 = details: HBC4, 48 h
# Procedure, shortened: as §1
# [1] = 48 h, inhibitor, Log GI50, 48 h
Structure (SMILES),GI50 (HCT-15),GI50 (OVCAR-3),GI50 (PC-3),GI50 (MKN45),GI50 (SF-268),GI50 (MKN74),GI50 (OVCAR-8),GI50 (DMS114),GI50 (HCT-116),GI50 (OVCAR-4),GI50 (DU-145),GI50 (MKN1),GI50 (SF-295),GI50 (U251),GI50 (SK-OV-3),GI50 (HT-29),GI50 (NCI-H23),GI50 (SF-539),GI50 (OVCAR-5),GI50 (HBC-4),other results
C=C1CCC2C(C)(CC(=O)C=C(C)C)C(O)CCC2(C)C1Cc1c(OC)oc(CO)c(C)c1=O (centres unmarked) [Compound 19],52.8 µM,18.4 µM,24.1 µM,77.1 µM,69.5 µM,31 µM,40.8 µM,6.52 µM,22.8 µM,52.6 µM,42.9 µM,78.2 µM,17.2 µM,69.7 µM,83.2 µM,46 µM,11.9 µM,65.8 µM,–,–,GI50 (MKN-A): 9.57 µM
C=C1CC[C@@H]2[C@](C)(CC[C@H]3O[C@H](C=C(C)C)C[C@@]23C)[C@@H]1Cc1c(OC)oc(CO)c(C(=O)OC)c1=O [Compound 21],17.6 µM,12 µM,14.7 µM,16.2 µM,19.5 µM,19.8 µM,16.7 µM,4.93 µM,15 µM,15.1 µM,15.7 µM,18.5 µM,12.1 µM,17.5 µM,17.3 µM,17.4 µM,11.1 µM,18.4 µM,16.6 µM,16.8 µM,GI50 (MKN-A): 14.3 µM
C=C1CCC2C(C)(CCC=C(C)C)C(O)CCC2(C)C1Cc1c(OC)oc(CO)c(C(=O)OC)c1=O (centres unmarked) [Compound 13],18.5 µM,10.8 µM,14.8 µM,16.7 µM,20.2 µM,14.8 µM,17.1 µM,5.89 µM,18.4 µM,15.5 µM,15.2 µM,18.8 µM,11.9 µM,19.9 µM,16.3 µM,17.9 µM,10.9 µM,19.4 µM,17.3 µM,21.8 µM,–
"C=C1CC[C@@H]2[C@](C)(CC[C@H]3O[C@H](C=C(C)C)C[C@@]23C)[C@@H]1Cc1c(OC)oc(C)c(C)c1=O [Compound 22, O-methylated higginsianin A]",–,2.34 µM,–,10.4 µM,8.18 µM,3.33 µM,4.78 µM,0.0601 µM,1.78 µM,2.77 µM,–,10.2 µM,2.45 µM,11.6 µM,10.6 µM,7.66 µM,0.729 µM,10.5 µM,13.4 µM,11.9 µM,GI50 (MKN-A): 0.211 µM
C=C1CCC2C(C)(CCC=C(C)C)C(O)CCC2(C)C1Cc1c(OC)oc(CO)c(C)c1=O (centres unmarked) [Compound 12],–,4.69 µM,4.92 µM,13.4 µM,12.3 µM,–,5.64 µM,–,2.63 µM,9.93 µM,11.8 µM,13.7 µM,–,15 µM,12.6 µM,12.6 µM,1.95 µM,11.5 µM,19.5 µM,13.8 µM,"Log GI50 (HCT-15; [1]): -5.533 M; Log GI50 (MKN74; [1]): -5.381 M; Log GI50 (MKN-A; inhibitor, Log GI50, 48 h): -6.771 M; Log GI50 (DMS114; [1]): -7.363 M"
C=C1CCC2C(C)(CCC=C(C)C)C(O)CCC2(C)C1Cc1c(OC)oc(C)c(C)c1=O (centres unmarked) [Compound 11],1.22 µM,3.61 µM,–,18.6 µM,14 µM,4.76 µM,3.61 µM,0.0565 µM,0.736 µM,9.06 µM,16.5 µM,30.6 µM,–,22.8 µM,–,13.6 µM,–,–,42.4 µM,35.8 µM,GI50 (MKN-A): 0.308 µM
C=C1CC[C@H]2[C@]3(C)C[C@@H](C=C(C)C)O[C@H]3CC[C@]2(C)[C@@H]1Cc1c(OC)oc(CO)c(C)c1=O [Compound 17],0.942 µM,10.5 µM,11.1 µM,14 µM,13.2 µM,13 µM,10.8 µM,0.0701 µM,0.953 µM,12.2 µM,13.2 µM,19.3 µM,10.7 µM,14.3 µM,12.1 µM,14.3 µM,10.8 µM,12.2 µM,15.5 µM,16.6 µM,GI50 (MKN-A): 0.408 µM
C=C1CCC2C(C)(CCC=C(C)C)C(O)CCC2(C)C1Cc1c(OC)oc(C)c(C(=O)OC)c1=O (centres unmarked) [Compound 14],10.2 µM,10.3 µM,10.1 µM,13 µM,12.8 µM,10.8 µM,8.57 µM,0.0942 µM,2.83 µM,11.9 µM,11.8 µM,16.1 µM,11.5 µM,15 µM,13.6 µM,13.2 µM,2.61 µM,12.4 µM,18.6 µM,16.1 µM,–
C=C1CCC2C(C)(CC(=O)C=C(C)C)C(O)CCC2(C)C1Cc1c(O)c(C)c(C)oc1=O (centres unmarked) [Compound 7],55.6 µM,20.6 µM,83 µM,–,77.8 µM,–,35.7 µM,–,37.3 µM,35.8 µM,–,–,25.4 µM,95.5 µM,60.8 µM,–,13.2 µM,61.4 µM,–,–,GI50 (MKN-A): 20.5 µM
C=C1CC[C@@H]2[C@](C)(CC[C@H]3O[C@H](C=C(C)C)C[C@@]23C)[C@@H]1Cc1c(OC)oc(CO)c(C)c1=O [Compound 20],10.1 µM,3.81 µM,11.4 µM,14.5 µM,12.7 µM,12.9 µM,12.3 µM,0.0476 µM,10.4 µM,11.9 µM,12.7 µM,14.6 µM,11.2 µM,13.8 µM,13.3 µM,14.6 µM,–,12.3 µM,16.4 µM,15.6 µM,GI50 (MKN-A): 0.0986 µM
